Data from patent publication US8685970B2, “Quinolines and related analogs as sirtuin modulators” (GlaxoSmithKline, LLC, priority 2008, dated 2014).

Biological target: T1, SIRT1 (Homo sapiens, UniProt Q96EB6)
T1 sequence (Q96EB6 1-747): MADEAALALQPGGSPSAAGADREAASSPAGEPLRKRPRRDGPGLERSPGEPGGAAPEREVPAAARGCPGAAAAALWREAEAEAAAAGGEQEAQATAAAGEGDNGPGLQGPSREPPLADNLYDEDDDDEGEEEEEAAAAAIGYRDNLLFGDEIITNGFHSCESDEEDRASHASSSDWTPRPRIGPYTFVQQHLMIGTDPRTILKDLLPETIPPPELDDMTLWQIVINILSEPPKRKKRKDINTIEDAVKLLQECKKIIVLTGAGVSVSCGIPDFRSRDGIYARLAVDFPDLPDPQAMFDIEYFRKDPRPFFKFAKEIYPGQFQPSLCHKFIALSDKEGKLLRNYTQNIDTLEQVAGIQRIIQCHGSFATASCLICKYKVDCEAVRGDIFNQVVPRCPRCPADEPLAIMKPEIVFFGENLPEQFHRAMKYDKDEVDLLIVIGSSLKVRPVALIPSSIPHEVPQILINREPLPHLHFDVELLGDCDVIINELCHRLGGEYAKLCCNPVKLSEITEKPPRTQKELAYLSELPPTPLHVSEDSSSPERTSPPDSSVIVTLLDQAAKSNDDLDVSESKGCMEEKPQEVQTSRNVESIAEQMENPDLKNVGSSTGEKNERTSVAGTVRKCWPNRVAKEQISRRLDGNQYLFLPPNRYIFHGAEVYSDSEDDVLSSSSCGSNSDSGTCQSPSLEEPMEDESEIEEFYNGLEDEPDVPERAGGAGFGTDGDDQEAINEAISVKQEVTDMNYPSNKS
Assay: Mass spectrometry based SIRT1 deacetylation assay (activation)
Format: biochemical
Conditions: 10 nM SIRT1, 0.5 μM peptide substrate, 120 μM βNAD+, 25 min at 25° C.
How it was run: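 Activation reported as EC1.5, the compound concentration producing 150% of DMSO-control deacetylation, plus maximum fold activation. Readout is mass-spectrometric ratio of deacetylated to acetylated p53-based peptide (0.5 μM) after 25 min, 25 °C, with 120 μM βNAD+ and 10 nM His-tagged human SIRT1, pH 8.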

% Fold Act. (percent maximum fold activation) | EC1.5 (concentration of test compound that results in 150% activation of SIRT1) | Compound
A (Fold activation >200%) | B (EC1.5 1-25 uM) | O=C(NCc1ccncc1)c1cccc2ccc(-c3cccc(O[C@@H]4CCNC4)c3)nc12 [Compound 103]
– | C (EC1.5>25 uM) | Cc1cc(-c2ccc3cccc(C(=O)Nc4ccccn4)c3n2)no1 [Compound 64]
– | C (EC1.5>25 uM) | O=C(Nc1cccc2ccc(-c3cccc(C(F)(F)F)c3)nc12)c1cccc(OCCN2CCOCC2)c1 [Compound 318]
A (Fold activation >200%) | A (EC1.5<1.0 uM) | Cc1cc(C)nc(NC(=O)c2cccc3ccc(-c4cccnc4)nc23)c1 [Compound 248]
– | C (EC1.5>25 uM) | O=C(Nc1nccs1)c1cccc2ccc(-c3ccc(C(F)(F)F)cc3)nc12 [Compound 96]
B (Fold Activation <200%) | A (EC1.5<1.0 uM) | O=C(Nc1ccc(Cl)cn1)c1cccc2ccc(-c3cccc(C(F)(F)F)c3)nc12 [Compound 56]
A (Fold activation >200%) | A (EC1.5<1.0 uM) | Cn1cnc(C(=O)Nc2cccc3ccc(-c4cccc(C(F)(F)F)c4)nc23)c1 [Compound 221]
A (Fold activation >200%) | A (EC1.5<1.0 uM) | O=C(Nc1nccs1)c1cccc2ccc(-c3ccnc(C(F)F)c3)nc12 [Compound 304]
A (Fold activation >200%) | A (EC1.5<1.0 uM) | O=C(Nc1cccc2ccc(-c3cccc(CN4CCNCC4)c3)nc12)c1cscn1 [Compound 121]
A (Fold activation >200%) | A (EC1.5<1.0 uM) | O=C(Nc1nccs1)c1cccc2ccc(-c3cccc(N4CCOCC4)c3)nc12 [Compound 108]
– | C (EC1.5>25 uM) | FC(F)(F)c1cccc(-c2ccc3cccc(NCc4nccs4)c3n2)c1 [Compound 137]
A (Fold activation >200%) | B (EC1.5 1-25 uM) | Cc1cccc(NC(=O)c2cccc3ccc(-c4cccnc4)nc23)n1 [Compound 249]
A (Fold activation >200%) | A (EC1.5<1.0 uM) | O=C(Nc1cccnc1)c1cccc2ccc(-c3cccc(OC(F)(F)F)c3)nc12 [Compound 25]
B (Fold Activation <200%) | B (EC1.5 1-25 uM) | CS(=O)(=O)c1ccc(-c2ccc3cccc(NC(=O)c4cscn4)c3n2)cc1 [Compound 106]
B (Fold Activation <200%) | A (EC1.5<1.0 uM) | Cc1ccc(-c2ccc3cccc(NC(=O)c4cscn4)c3n2)cc1F [Compound 213]
A (Fold activation >200%) | A (EC1.5<1.0 uM) | O=C(Nc1cccnc1)c1cccc2ccc(-c3ccnc(C(F)F)c3)nc12 [Compound 305]
A (Fold activation >200%) | A (EC1.5<1.0 uM) | O=C(Nc1ccc(CN2CCCC2)nc1)c1cccc2ccc(-c3cccc(C(F)F)c3)nc12 [Compound 290]
A (Fold activation >200%) | A (EC1.5<1.0 uM) | O=C(Nc1ncnc2ccc(-c3cccc(C(F)(F)F)c3)nc12)c1ccccn1 [Compound 310]
A (Fold activation >200%) | A (EC1.5<1.0 uM) | Cc1nnc(NC(=O)c2cccc3ccc(-c4cccc(N5CCOCC5)c4)nc23)o1 [Compound 276]
B (Fold Activation <200%) | A (EC1.5<1.0 uM) | O=C(Nc1ccncn1)c1cccc2ncc(-c3cccc(C(F)(F)F)c3)nc12 [Compound 130]

% Fold Act. (percent maximum fold activation) | EC1.5 (concentration of test compound that results in 150% activation of SIRT1) | Compound
– | C (EC1.5>25 uM) | O=C(Nc1nccs1)c1cccc2cnc(-c3cccc(C(F)(F)F)c3)nc12 [Compound 270]
A (Fold activation >200%) | A (EC1.5<1.0 uM) | O=C(Nc1cccc(N2CCCC2)n1)c1cccc2ccc(-c3cccc(C(F)(F)F)c3)nc12 [Compound 320]
A (Fold activation >200%) | B (EC1.5 1-25 uM) | O=C(O)c1csc(NC(=O)c2cccc3ccc(-c4cccc(C(F)(F)F)c4)nc23)n1 [Compound 101]
A (Fold activation >200%) | A (EC1.5<1.0 uM) | O=C(Nc1nccs1)c1cccc2ccc(-c3cccc(OC4CCNCC4)c3)nc12 [Compound 131]
A (Fold activation >200%) | A (EC1.5<1.0 uM) | O=C(Nc1ccc(Cl)cn1)c1cccc2ccc(-c3cccc(N4CCOCC4)c3)nc12 [Compound 278]
A (Fold activation >200%) | A (EC1.5<1.0 uM) | O=C(Nc1cccc(CN2CCOCC2)n1)c1cccc2ccc(-c3ccnc(C(F)F)c3)nc12 [Compound 306]
A (Fold activation >200%) | B (EC1.5 1-25 uM) | Cc1csc(NC(=O)c2cccc3cnc(-c4cccc(C(F)(F)F)c4)nc23)n1 [Compound 281]
B (Fold Activation <200%) | B (EC1.5 1-25 uM) | O=C(Nc1ccncn1)c1cccc2cnc(-c3cccc(C(F)(F)F)c3)nc12 [Compound 271]
A (Fold activation >200%) | A (EC1.5<1.0 uM) | O=C(Nc1cccnc1)c1ccc(F)c2ccc(-c3cccc(C(F)(F)F)c3)nc12 [Compound 67]
A (Fold activation >200%) | A (EC1.5<1.0 uM) | O=C(Nc1cccc(CN2CCCC2)n1)c1cccc2ccc(-c3cccc(C(F)(F)F)c3)nc12 [Compound 227]
A (Fold activation >200%) | A (EC1.5<1.0 uM) | O=C(Nc1ccc(CN2CCCC2)cn1)c1cccc2ccc(-c3cccc(C(F)(F)F)c3)nc12 [Compound 285]
A (Fold activation >200%) | B (EC1.5 1-25 uM) | O=C(Nc1cccc(CN2CCCC2)n1)c1cccc2ccc(-c3cccnc3)nc12 [Compound 230]
A (Fold activation >200%) | A (EC1.5<1.0 uM) | O=C(Nc1cccc(CN2CCCC2)c1)c1cccc2ccc(-c3cccc(C(F)F)c3)nc12 [Compound 316]
A (Fold activation >200%) | A (EC1.5<1.0 uM) | O=C(Nc1ncnc2ccc(-c3cccc(C(F)(F)F)c3)nc12)c1cscn1 [Compound 259]
A (Fold activation >200%) | A (EC1.5<1.0 uM) | O=C(Nc1cccnc1)c1cccc2ccc(-c3cccc(OC4CCNCC4)c3)nc12 [Compound 132]
B (Fold Activation <200%) | B (EC1.5 1-25 uM) | O=C(Nc1cccc2ccc(-c3cccc(O)c3)nc12)c1cscn1 [Compound 185]
A (Fold activation >200%) | A (EC1.5<1.0 uM) | O=C(Nc1ccncn1)c1cccc2ccc(-c3cccc(OC4CCNCC4)c3)nc12 [Compound 133]
A (Fold activation >200%) | A (EC1.5<1.0 uM) | O=C(Nc1ncc(CN2CCOCC2)s1)c1cccc2ccc(-c3cccc(C(F)(F)F)c3)nc12 [Compound 188]
– | C (EC1.5>25 uM) | Fc1cc(-c2ccc3cccc(NCc4cccnc4)c3n2)cc(C(F)(F)F)c1 [Compound 168]

Compound | % Fold Act. (percent maximum fold activation) | EC1.5 (concentration of test compound that results in 150% activation of SIRT1)
O=C(NC1CN2CCC1CC2)c1cccc2ccc(-c3cccc(C(F)(F)F)c3)nc12 (stereo not shown) [Compound 88] | – | C (EC1.5>25 uM)
